{
  "source": "patent US20060069132A1",
  "about": "“Azolecarboxamide herbicides” (priority 2004, published 2006)",
  "key": {"[1]": {"test_system": "barnyardgrass", "assay": "Test C flooded paddy test", "type": "in vivo, Echinochloa crus-galli", "procedure,_shortened": "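Visual rating, 0 (no effect) to 100 (complete control), vs. controls at 12–14 d in greenhouse. Postemergence: 1–4-leaf plants, 2–18 cm. Paddy: flooded, barnyardgrass at 2-leaf stage.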"}, "[2]": {"test_system": "eastern black nightshade", "assay": "Test C pre-/postemergence herbicide test", "type": "in vivo, Solanum ptycanthum", "conditions": "preemergence", "procedure,_shortened": "(§1)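 Greenhouse-grown plants were evaluated visually 12 to 14 days after treatment, with 100 meaning complete control and 0 no effect. Application was preemergence, or postemergence at 2 to 18 cm.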"}, "[3]": {"test_system": "lambsquarters", "assay": "Test C pre-/postemergence herbicide test", "type": "in vivo, Chenopodium album", "conditions": "preemergence", "procedure,_shortened": "as §1"}, "[4]": {"test_system": "morningglory", "assay": "Test C pre-/postemergence herbicide test", "type": "in vivo, Ipomoea coccinea", "design": "key to Plant response rating, Morningglory: 0 = no effect, 100 = complete control", "conditions": "visual, 12 to 14 days, preemergence", "procedure,_shortened": "as §1"}, "[5]": {"test_system": "smallflower umbrella sedge", "assay": "Test C flooded paddy test", "type": "in vivo, Cyperus difformis"}, "[6]": {"test_system": "Surinam grass", "assay": "Test C pre-/postemergence herbicide test", "type": "in vivo, Urochloa decumbens", "conditions": "preemergence", "procedure,_shortened": "as §1"}, "[7]": {"test_system": "yellow nutsedge", "assay": "Test C pre-/postemergence herbicide test", "type": "in vivo, Cyperus esculentus", "conditions": "preemergence", "procedure,_shortened": "as §1"}, "[8]": {"test_system": "ducksalad", "assay": "Test C flooded paddy test", "type": "in vivo, Heteranthera limosa"}, "[9]": {"test_system": "common ragweed", "assay": "Test C pre-/postemergence herbicide test", "type": "in vivo, Ambrosia elatior", "design": "key to Plant response rating, Ragweed: 0 = no effect, 100 = complete control", "conditions": "preemergence", "procedure,_shortened": "as §1"}, "[10]": {"test_system": "corn", "assay": "Test C pre-/postemergence herbicide test", "type": "in vivo, Zea mays", "conditions": "preemergence", "procedure,_shortened": "as §1"}, "[11]": {"test_system": "soybean", "assay": "Test C pre-/postemergence herbicide test", "type": "in vivo, Glycine max", "conditions": "preemergence", "procedure,_shortened": "as §1"}, "[12]": {"test_system": "giant foxtail", "assay": "Test C pre-/postemergence herbicide test", "type": "in vivo, Setaria faberi", "conditions": "preemergence", "procedure,_shortened": "as §1"}, "[13]": {"test_system": "johnsongrass", "assay": "Test C pre-/postemergence herbicide test", "type": "in vivo, Sorghum halepense", "conditions": "preemergence", "procedure,_shortened": "as §1"}, "[14]": {"conditions": "62 g ai/ha, scale 0 to 100 (0 no effect, 100 complete control)"}, "[15]": {"conditions": "125 g ai/ha, scale of 0 to 100, 0 is no effect, 100 is complete control"}, "[16]": {"conditions": "250 g ai/ha, scale of 0 to 100, 0 is no effect, 100 is complete control"}, "[17]": {"conditions": "500 g ai/ha, visual rating after 12 to 14 days, scale 0 to 100 (0 no effect, 100 complete control)"}, "[18]": {"conditions": "125 g ai/ha, scale 0 (no effect) to 100 (complete control), visual, 12 to 14 days"}, "[19]": {"conditions": "250 g ai/ha, scale 0 to 100 (0 no effect, 100 complete control), visual, 12 to 14 days"}},
  "data": [
    {"smiles": "CCn1nc(C(C)(C)C)cc1C(=O)Nc1cccc(C(=O)NCC2CC2)c1", "note": "[Compound 62]", "values": [
      {"measurement": "Barnyardgrass plant response rating", "setting": "[1]; [14]", "value": 5},
      {"measurement": "Barnyardgrass plant response rating", "setting": "[1]; [15]", "value": 10},
      {"measurement": "Barnyardgrass plant response rating", "setting": "[1]; [16]", "value": 30},
      {"measurement": "Plant response rating, Barnyardgrass", "setting": "[1]; [17]", "value": 55},
      {"measurement": "Plant response rating, Nightshade", "setting": "[2]; 31 g ai/ha, scale 0 to 100", "value": 80},
      {"measurement": "Plant response rating (0 = no effect, 100 = complete control), Nightshade", "setting": "[2]; 62 g ai/ha", "value": 80},
      {"measurement": "Plant response rating, Nightshade", "setting": "[2]; [18]", "value": 90},
      {"measurement": "Plant response rating, Nightshade", "setting": "[2]; [19]", "value": 95},
      {"measurement": "Plant response rating, Lambsquarters", "setting": "[3]; 31 g ai/ha, scale 0 to 100", "value": 100},
      {"measurement": "Plant response rating (0 = no effect, 100 = complete control), Lambsquarters", "setting": "[3]; 62 g ai/ha", "value": 100},
      {"measurement": "Plant response rating, Lambsquarters", "setting": "[3]; [18]", "value": 100},
      {"measurement": "Plant response rating, Lambsquarters", "setting": "[3]; [19]", "value": 100},
      {"measurement": "Plant response rating, Morningglory", "setting": "[4]; 125 g ai/ha, scale 0 (no effect) to 100 (complete control)", "value": 0},
      {"measurement": "Plant response rating, Morningglory", "setting": "[4]; 250 g ai/ha, scale 0 to 100 (0 no effect, 100 complete control)", "value": 10},
      {"measurement": "Sedge, Umbrella plant response rating", "setting": "[5]; [14]", "value": 45},
      {"measurement": "Sedge, Umbrella plant response rating", "setting": "[5]; [15]", "value": 60},
      {"measurement": "Sedge, Umbrella plant response rating", "setting": "[5]; [16]", "value": 80},
      {"measurement": "Plant response rating, Sedge, Umbrella", "setting": "[5]; [17]", "value": 85},
      {"measurement": "Plant response rating, Surinam Grass", "setting": "[6]; 31 g ai/ha, scale 0 to 100", "value": 0},
      {"measurement": "Plant response rating (0 = no effect, 100 = complete control), Surinam Grass", "setting": "[6]; 62 g ai/ha", "value": 5},
      {"measurement": "Plant response rating, Surinam Grass", "setting": "[6]; [18]", "value": 10},
      {"measurement": "Plant response rating, Surinam Grass", "setting": "[6]; [19]", "value": 50},
      {"measurement": "Plant response rating, Nutsedge, Yellow", "setting": "[7]; 31 g ai/ha, scale 0 to 100", "value": 0},
      {"measurement": "Plant response rating (0 = no effect, 100 = complete control), Nutsedge, Yellow", "setting": "[7]; 62 g ai/ha", "value": 0},
      {"measurement": "Plant response rating, Nutsedge, Yellow", "setting": "[7]; [18]", "value": 10},
      {"measurement": "Plant response rating, Nutsedge, Yellow", "setting": "[7]; [19]", "value": 40},
      {"measurement": "Ducksalad plant response rating", "setting": "[8]; [14]", "value": 25},
      {"measurement": "Ducksalad plant response rating", "setting": "[8]; [15]", "value": 35},
      {"measurement": "Ducksalad plant response rating", "setting": "[8]; [16]", "value": 90},
      {"measurement": "Plant response rating, Ducksalad", "setting": "[8]; [17]", "value": 90},
      {"measurement": "Plant response rating, Ragweed", "setting": "[9]; 31 g ai/ha, scale 0 to 100", "value": 0},
      {"measurement": "Plant response rating (0 = no effect, 100 = complete control), Ragweed", "setting": "[9]; 62 g ai/ha", "value": 10},
      {"measurement": "Plant response rating, Ragweed", "setting": "[9]; [18]", "value": 20},
      {"measurement": "Plant response rating, Ragweed", "setting": "[9]; [19]", "value": 85},
      {"measurement": "Plant response rating, Corn", "setting": "[10]; 31 g ai/ha, scale 0 to 100", "value": 0},
      {"measurement": "Plant response rating (0 = no effect, 100 = complete control), Corn", "setting": "[10]; 62 g ai/ha", "value": 0},
      {"measurement": "Plant response rating, Corn", "setting": "[10]; [18]", "value": 0},
      {"measurement": "Plant response rating, Corn", "setting": "[10]; [19]", "value": 0},
      {"measurement": "Plant response rating, Soybean", "setting": "[11]; 31 g ai/ha, scale 0 to 100", "value": 0},
      {"measurement": "Plant response rating (0 = no effect, 100 = complete control), Soybean", "setting": "[11]; 62 g ai/ha", "value": 0},
      {"measurement": "Plant response rating, Soybean", "setting": "[11]; [18]", "value": 0},
      {"measurement": "Plant response rating, Soybean", "setting": "[11]; [19]", "value": 30},
      {"measurement": "Plant response rating, Foxtail, Giant", "setting": "[12]; 31 g ai/ha, scale 0 to 100", "value": 5},
      {"measurement": "Plant response rating (0 = no effect, 100 = complete control), Foxtail, Giant", "setting": "[12]; 62 g ai/ha", "value": 15},
      {"measurement": "Plant response rating, Foxtail, Giant", "setting": "[12]; [18]", "value": 65},
      {"measurement": "Plant response rating, Foxtail, Giant", "setting": "[12]; [19]", "value": 85},
      {"measurement": "Plant response rating, Johnsongrass", "setting": "[13]; 31 g ai/ha, scale 0 to 100", "value": 0},
      {"measurement": "Plant response rating (0 = no effect, 100 = complete control), Johnsongrass", "setting": "[13]; 62 g ai/ha", "value": 40},
      {"measurement": "Plant response rating, Johnsongrass", "setting": "[13]; [18]", "value": 40},
      {"measurement": "Plant response rating, Johnsongrass", "setting": "[13]; [19]", "value": 70}
    ]}
  ]
}
